The values below come from patent publication US20140356468A1, “COMPOSITION CONTAINING PAPER MULBERRY EXTRACTS” (AMOREPACIFIC CORPORATION, priority 2010, published 2014).

Structures are written as SMILES.

The target of one test is T1, elastase type III (Sus scrofa, UniProt P00772).
T1 construct: purchased Sigma Aldrich E0127
In words: Inhibition of elastase activity. In kind it is biochemical. The conditions noted are these: elastase test; extract 10 mg/L, EGCG 250 μM; untreated negative control = 100. On the procedure:
The elastase inhibitory activity of the paper mulberry extract prepared in Preparation Example 1 was measured in comparison with that of EGCG. The elastase and substrate used were commercially purchased from Sigma Aldrich (Cat. No. E0127, USA). The elastase inhibitory activity was measured in the following manner. […] Then, 100 μL of 0.4514 mg/mL N-SUCCINYL-[…]-NITROANILIDE in the same buffer used above was added to the plate and allowed to react at 25° C. for 15 minutes. After completion of the reaction, the absorbance at 415 nm was measured. For correction, a blank test was carried out in the same manner. The elastase inhibitory activity was calculated using the following equation. Elastase activity inhibition(%)={1-(C-D)/(A-B)}×100 wherein A: absorbance at 415 nm in the case in which the test sample was not added and the enzyme was added; B: absorbance at 415 nm in the case in which the test sample was not added and the enzyme was not added; C: absorbance at 415 nm in the case in which the test sample was added and the enzyme was added; and D: absorbance at 415 nm in the case in which the test sample was added and the enzyme was not added.

In test [1] the test system is MITF expression in Melan-a melanocyte cell line MITF-GLuc. Description: Stimulation of MITF expression in transformed melanocytes (GLuc reporter). It is filed as cell-based. The conditions noted are these: 100 μM, 3 days. The text has this: To examine the gray preventing effect of the paper mulberry extract, the effect of the paper mulberry extract on the stimulation of MITF expression was examined as disclosed in Korean Patent Application No. 10-2007-0072182 (entitled “A method for screening a gray hair-preventing substance using a transformed cell line and leukoplakia mice and a composition for preventing gray hair containing the gray hair-preventing substance”). The Melan-a melanocyte cell line MITF-GLuc (accession number: KCLRF-BP-00162) transformed with the expression vector pMITF-GLuc was cultured in RPMI 1640 medium containing 10% fetal bovine serum (FBS), 100 unit/ml penicillin-streptomycin (Gibco), 0.1 μM TPA (Sigma) and 400 μg/ml G418 under the conditions of 37° C. and 10% CO2. The positive control IBMX was purchased from Sigma and used at a concentration of 100 μM. […] After the incubation, to quantify the amount of GLuc, a small amount of the medium was taken, transferred to a measurement plate and allowed to react with a substrate. Specifically, a small amount of the medium was taken from the cell culture dish and transferred to a measurement plate, after which 1× GLuc assay working solution (NEB) was added to the medium at a ratio of 4:1, and the amount of light emitted at […] was measured using a luminometer.

The test system of test [2] is Leukoplakia mice (C57bl/6-Mitf^mi-vit). Description: Gray hair prevention and black hair induction in leukoplakia mice (melanin in hair). In kind it is in vivo. The following applies: topical twice a day, about 3 weeks; extract 2.5%, IBMX 50 mM in vehicle. On the procedure:
Leukoplakia mice (C57bl/6-Mitf^mi-vit) were purchased from The Jackson Lab (USA) and used. The effect of the paper mulberry extract on gray hair prevention in the mice was tested in the following manner. The back of 12-week-old mice was depilated such that the depilated area was the same between the mice. From the day following the depilation day, gray hair-preventing substances were applied to the depilated area twice a day. As a vehicle for the gray hair-preventing substance, a mixture of EtOH:1,3-BG:DW=3:2:5 (volume ratio) was used. […] After about 3 weeks, the difference in gray hair prevention effect between the materials has been distinguished, newly grown hairs were collected and the amount of melanin in the hairs was measured using esperase (Novozyme). […] The reaction solution thus obtained was added to a 96-well plate, and the absorbance at 405 nm was measured, thereby measuring the amount of melanin in the reaction solution. As described above, the leukoplakia mouse model in which the occurrence of gray hair was stimulated was treated with each of the negative control, the positive control and the test sample, and the effects of the negative control, the positive control and the test sample were measured visually and by measuring the amount of melanin in the hair.

For test [3], the target named is T2, 5α-reductase in HEK293-5αR2 cells (Homo sapiens, UniProt P31213).
T2 construct: 3×FLAG; expressed in transfected cells; host or cells: HEK293
T2 sequence (P31213 1-254): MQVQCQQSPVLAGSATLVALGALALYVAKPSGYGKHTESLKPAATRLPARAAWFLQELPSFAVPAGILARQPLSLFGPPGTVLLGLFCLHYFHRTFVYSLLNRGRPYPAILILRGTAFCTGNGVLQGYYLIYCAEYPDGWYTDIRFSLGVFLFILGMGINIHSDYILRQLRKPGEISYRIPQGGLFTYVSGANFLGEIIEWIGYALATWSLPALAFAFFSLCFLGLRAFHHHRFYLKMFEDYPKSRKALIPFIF
Description: Inhibition of 5α-reductase (testosterone to dihydrotestosterone conversion). In kind it is cell-based. The following applies: radioactivity in the DHT region/total radioactivity; extract 10 μg/ml, 2 hours. The procedure: In order to examine the effect of inhibiting 5α-reductase activity, the ratio of [^14C]testosterone-to-[14^C]dihydrotestosteron conversion in HEK293-5αR2 cells was measured. HEK293 cells transfected with p3×FLAG-CMV-5αR2 were added to a 24-well plate at a density of 2.5×10^5 cells/well and cultured (Park et al., 2003, JDS. Vol. 31, ppl 91-98). The next day, the medium was replaced with fresh medium containing an enzyme substrate and an inhibitor. As the substrate of the medium, 0.05 μCi [^14C]testosterone (Amersham Pharmacia biotech, UK) was used. In order to measure the degree of inhibition, 10 μg/ml of the paper mulberry extract of Preparation Example 2 was added to the cells which were then incubated in a 5% CO2 incubator at 37° C. for 2 hours. As a positive control, finasteride was used. The culture medium was collected and, steroid was extracted with 800 μl of ethyl acetate. […]
The plastic sample was dried in air, and the amount of isotopes was measured using a Vas system. Specifically, the dried plastic sheet together with an X-ray film was placed in a Vas cassette, and after 1 week, the amounts of the testosterone and dihydrotestosterone isotopes were measured.

In test [4] the test system is differentiated 3T3-L1 adipocytes. Description: Inhibition of lipogenesis (Sudan III staining of adipocytes). The conditions noted are these: Sudan III staining grade; positive control 50 μM caffeine. Also on record: key: expressed as +++, ++ and + depending on the degree of staining; expressed as +++, ++ and + depending on the degree of staining; expressed as +++, ++ and + depending on the degree of staining. In kind it is cell-based, mouse. The procedure:
Mouse fibroblast 3T3-L1 cells were seeded into a 6-well culture plate containing 10% fetal bovine serum (FBS)-containing DMEM (Dulbeco's modified eagle's medium (GIBCO BRL, Life Technologes) at a density of 1×10^5 cells/well. After 2 days, the medium was replaced with fresh DMEM (containing 10% FBS), followed by culture for 2 days. Then, the cultured cells were treated with DMEM (containing 10% FBS) containing 1 μg/ml insulin, 0.5 mM IBMX and 0.25 μM dexamethasone to induce differentiation, and after 2 days, the medium was replaced with insulin-containing DMEM, followed by incubation for 5 days. After 5 days, the medium was replaced with normal medium (DMEM containing 10% FBS), and the cells were incubated until the cells morphologically differentiated into adipocytes. In order to measure the effect of the paper mulberry extract on the inhibition of the accumulation of fat in adipocytes, the differentiated 3T3-L1 adipocytes were subjected to Sudan III staining ([…], Sigma-Aldrich). The adipocytes were fixed with 4% paraformaldehyde (pH 7.2) in phosphate buffer at room temperature, and then washed with PBS (phosphate buffered saline), after which the cells were stained with Sudan III and photographed for visual comparison. […] The degree of inhibition of fat accumulation was expressed as +++, ++ and + depending on the degree of staining.

The test system is the same in test [5]. In words: Stimulation of decomposition of triglyceride in adipocytes (GPO-trinder kit). In kind it is cell-based, mouse. The conditions noted are these: control = 100%; caffeine 50 μM. On the procedure:
Mouse fibroblast 3T3-L1 cells were seeded into a 6-well culture plate containing 10% fetal bovine serum (FBS)-containing DMEM (Dulbeco's modified eagle's medium, GIBCO BRL, Life Technologes) at a density of 1×10^5 cells/well. After 2 days, the medium was replaced with fresh DMEM (containing 10% FBS), followed by culture for 2 days. Then, the cultured cells were treated with DMEM (containing 10% FBS) containing 1 μg/ml insulin, 0.5 mM IBMX and 0.25 μM dexamethasone to induce differentiation, and after 2 days, the medium was replaced with insulin-containing DMEM, followed by incubation for 5 days. After 5 days, the medium was replaced with normal medium (DMEM containing 10% FBS), and the cells were incubated until the cells morphologically differentiated into adipocytes. In order to evaluate the effect of the paper mulberry extract on the stimulation of decomposition of triglyceride in adipocytes, a test was carried out using the differentiated […] adipocytes. The 3T3-L1 adipocytes were washed twice with PBS (phosphate buffered saline), and colorless DMEM containing 0.5% fatty acid-free bovine serum albumin (BSA) was added to the cells, and a fraction of the cells was taken and used in the test. As a control, a medium not treated with the test material or the positive control was used. […] (Sigma, St. Louis, Mo., U.S.A.), and the absorbance at 540 nm was measured using an ELISA reader.

In the next test the test system is Collagenase (MMP-1). Description: Collagenase (MMP-1) production in human fibroblasts (ELISA). It is filed as cell-based. The following applies: extract 10 μg/ml, 24 hours; control = 100. On the procedure:
The collagenase production inhibitory ability of the paper mulberry extract prepared in Preparation Example 1 was measured in comparison with that of retinoic acid.
Human fibroblasts were added to a 96-well microtiter plate containing 2.5% fetal bovine serum-containing DMEM (Dulbecco's Modified Eagle's Media) at a density of 5,000 cells/well and were cultured in a 5% CO2 incubate at 37° C. to a confluence of about 70-80%. Then, the cell culture was treated with 10 μg/ml of the paper mulberry extract of Preparation Example 1 for 24 hours and collected.
The production of collagenase in the collected cell culture was measured using a commercially available collagenase measurement instrument (Catalog #: RPN 2610, Amersham Pharmacia, USA). […]
The absorbance of the yellowish 96-well plate at 405 nm was measured using a spectrophotometer, and based on the measurements, the degree of synthesis of collagenase was calculated using the following equation 1. Herein, the absorbance of a cell culture collected from a group not treated with the test sample was used as a control.
Collagenase expression(%)=(absorbance of cell group treated with material/absorbance of control)×100 Equation 1

The test system of test [6] is prostaglandin production in macrophages. In words: Inhibition of prostaglandin production in LPS-treated macrophages (ELISA). In kind it is cell-based, mice. The following applies: percentage relative to 100% for the difference between LPS-treated and non-LPS-treated group. On the procedure:
Anti-inflammatory effect was evaluated based on the inhibition of prostaglandin production. The anti-inflammatory effect of the paper mulberry extract of Preparation Example 1 was measured using macrophages. […] Then, 100 μl of the cell suspension was added to each well of a 96-well plate and cultured in a 5% CO2 incubator at 37° C. for 2 hours so that the macrophages were attached to the plate surface. Then, the attached macrophages were washed three times with PBS and used to test the effect of the extract. The cultured macrophages were added to 1%(w/v) LPS-containing RPMI medium at a concentration of 5×10^4 cells/ml and cultured for 12 hours to induce the production of prostaglandin, after which they were treated with 100 μl of the extract. Released prostaglandin was quantitatively analyzed by ELISA. Herein, the prostaglandin production inhibitory activity of the extract was expressed as the percentage of prostaglandin production in the group treated with LPS together with the sample relative to 100% for the difference in prostaglandin production between the LPS-treated group and the non-LPS-treated group.

T1 sequence (P00772 27-266): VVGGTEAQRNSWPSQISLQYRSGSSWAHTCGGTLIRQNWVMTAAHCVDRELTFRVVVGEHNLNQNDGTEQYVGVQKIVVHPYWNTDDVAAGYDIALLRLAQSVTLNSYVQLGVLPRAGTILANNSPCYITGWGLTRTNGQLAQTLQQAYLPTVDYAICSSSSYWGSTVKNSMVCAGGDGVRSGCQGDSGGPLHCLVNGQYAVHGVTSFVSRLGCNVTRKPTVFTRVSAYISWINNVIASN

For the molecule `O=C(O[C@@H]1Cc2c(O)cc(O)cc2O[C@@H]1c1cc(O)c(O)c(O)c1)c1cc(O)c(O)c(O)c1` [EGCG], the “Expression (%)” value at elastase type III came out at 90 ± 1.2%.

Take `CC(C)Cn1c(=O)n(C)c(=O)c2[nH]cnc21` [IBMX]: the “Percentage (%) of gluciferase production relative to negative control” value in test [1] was determined as 180%. Besides, in test [2], the “Ratio (%) of amount of melanin in hair relative to negative control” value worked out at 105.9%.

On to `CC(C)(C)NC(=O)[C@H]1CC[C@H]2[C@@H]3CC[C@H]4NC(=O)C=C[C@]4(C)[C@H]3CC[C@]12C` [finasteride], for which the “Conversion (%)” value in test [3] is 27.6%.

For `Cn1c(=O)c2c(ncn2C)n(C)c1=O` [Caffeine, caffeine], the “Inhibition (%)” value in test [4] is “+”. Besides, the “Level of released glycerol” value in test [5] is recorded as 115%.

Take `CC1=C(/C=C/C(C)=C/C=C/C(C)=C/C(=O)O)C(C)(C)CCC1` [Retinoic acid, retinoic acid]: the “Expression (%) (collagenase)” value in the test on Collagenase (MMP-1) stood at 75 ± 3.4%.

Regarding `CC(=O)Oc1ccccc1C(=O)O` [aspirin], in test [6], the “Prostaglandin production (inhibitory effect on prostaglandin production)” value is 25.0%.
